The source of these data is PubChem BioAssay AID463203 (Broad Institute, 2010).

For this test, the target named is Glycogen synthase kinase-3 alpha (Homo sapiens) (UniProt P49840). In words: concentration-response blocking of human GSK3A – biochemical, luminescence, cell-free homogeneous, retest, dose response (AID 463203). As to conditions: GSK-3 alpha enzyme, ADP-Glo luminescence, 60 min.

SMILES strings stand for the structures. Calls of active or inactive are those of the source.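 Rule for the calls: active = more than half of replicate measurements showing over 20% loss of kinase signal relative to plate controls; inconclusive = some but at most half of replicates over 20% loss; inactive = no replicate over 20% signal loss.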

Chain of Glycogen synthase kinase-3 alpha (Homo sapiens) (P49840 whole entry, looked up): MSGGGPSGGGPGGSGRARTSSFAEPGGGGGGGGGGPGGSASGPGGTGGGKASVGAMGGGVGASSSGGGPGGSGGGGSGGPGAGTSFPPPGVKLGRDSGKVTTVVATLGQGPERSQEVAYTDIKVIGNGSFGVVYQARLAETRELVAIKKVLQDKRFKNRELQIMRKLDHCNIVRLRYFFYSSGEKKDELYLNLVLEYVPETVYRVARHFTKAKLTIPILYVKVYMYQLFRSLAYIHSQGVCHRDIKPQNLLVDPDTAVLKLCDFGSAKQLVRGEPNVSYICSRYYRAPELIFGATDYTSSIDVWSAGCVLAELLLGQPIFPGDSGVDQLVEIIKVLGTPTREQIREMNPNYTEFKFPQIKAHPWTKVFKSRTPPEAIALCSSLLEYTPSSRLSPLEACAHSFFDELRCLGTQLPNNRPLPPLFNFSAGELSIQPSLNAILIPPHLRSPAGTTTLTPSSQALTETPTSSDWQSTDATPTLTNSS

For the compound `COc1cc(/C=N/NC(=O)c2cnccn2)ccc1O`, the AC50 (usually the midpoint of the concentration-response curve, whichever way the signal moves) is > 30 µM (inactive).
`C/C(=N/NC(=O)c1ccc(C)s1)c1ccncc1`: the AC50 is 27.3 µM.
Turning to `CN(C(=O)CN1CC=C(c2ccccc2)CC1)c1c(N)n(Cc2ccccc2)c(=O)[nH]c1=O`, the AC50 is > 30 µM (inactive).
For the compound `c1ccc2c(c1)ccc1nnc(-c3ccc4c(c3)OCO4)n12`, the AC50 is > 30 µM (inactive).
As to `COc1cccc(-c2c(C(=O)N/N=C/c3ccoc3)nnn2-c2nonc2N)c1`, the AC50 is 7.92 µM.
Consider `O=C(CCCN1C(=O)C2CCCCN2C1=O)N1CCN(c2ccc([N+](=O)[O-])cc2)CC1` (stereo not given), for which the AC50 was > 30 µM (inactive).
Consider `O=S(=O)(O)c1cccc(N=Nc2c(O)ccc3ccccc23)c1`, for which the AC50 is 8.34 µM.
Turning to `Cc1cc2nc(-c3cccnc3SCC(=O)NCc3ccco3)[nH]c2cc1C`, the AC50 was > 30 µM (inactive).
`CCc1ccc(C2CC(c3ccc(F)cc3)Nc3nc(N)nn32)cc1` (stereo not given): the AC50 is > 30 µM (inactive).
Turning to `CC(=O)Nc1ccc(CC#N)cc1`, the AC50 is > 30 µM (inactive).
For `CC(Oc1ccccc1)C(=O)Nc1nnc(C2CCCCC2)s1` (stereo not given), the AC50 is > 30 µM (inactive).
On to `Cc1ccc(-c2nc3ncccn3c2Nc2ccc3c(c2)OCCO3)cc1`, for which the AC50 is > 30 µM (inactive).
In the case of `CN1/C(=C\C=C(C#N)C#N)C(C)(C)c2ccccc21`, the AC50 was > 30 µM (inactive).
With `CCOC(=O)c1sc(NC(=O)CN2C(=O)NC3(CCC(C)CC3)C2=O)c(C(=O)OCC)c1C` (stereo not given), the AC50 is > 30 µM (inactive).
Regarding `CC1(C)CC(=O)C(C(C2=C(O)CC(C)(C)CC2=O)c2cccc(O)c2)C(=O)C1` (stereo not given), the AC50 is > 30 µM (inactive).
Take `N#Cc1c(Nc2ccccc2)c(C=NCCN2CCOCC2)c[nH]c1=O`: the AC50 was > 30 µM (inactive).
Regarding `COc1ccc(-n2c(O)c(C=NCCCn3ccnc3)c(=O)[nH]c2=O)cc1`, the AC50 is 5.43 µM.
Next, `CCOC(=O)c1cccc(NC(=O)C2CCCN2S(=O)(=O)c2cccc3cccnc23)c1` (stereo not given): 29.5 µM; `O=C(NC1(C(F)(F)F)NC(=O)N(Cc2cccnc2)C1=O)c1ccccc1` (stereo not given): > 30 µM (inactive).
Consider `CN(C)Cc1c(C(=O)N/N=C/c2ccc(-c3ccccc3)cc2)nnn1-c1nonc1N`, for which the AC50 is > 30 µM (inactive).
For the compound `O=C(Nc1ccsc1C(=O)O)c1ccccc1`, the AC50 was > 30 µM (inactive).
With `CCN(CC)c1nc(N)c([N+](=O)[O-])c(NCCO)n1` the figure was > 30 µM (inactive).
Next, `CCOc1ccc(Cn2nnc(C(=O)Nc3ccc(OC)cc3OC)c2N)cc1`: > 30 µM (inactive); `O=C(O)c1ccc(N=c2oc3cc(O)ccc3cc2C(=O)NCc2ccccc2)cc1`: 5.83 µM; `COc1ccc(NC(=O)/C(C#N)=C\C=C\c2ccco2)cc1`: > 30 µM (inactive).
With `C#CCOCCOCCOCCNc1nc(N2CCN(C(=O)[C@H](CCC(=O)O)n3cc([C@@H](N)CCCCN)nn3)CC2)nc(N2CCN(C(=O)[C@H](CCC(=O)O)n3cc([C@@H](N)CCCCN)nn3)CC2)n1`, the AC50 was > 30 µM (inactive).
With `CCN1CCN(c2nc(Nc3ccc(C)c(C)c3)nc(N)c2[N+](=O)[O-])CC1` the figure was > 30 µM (inactive); with `Cc1ccc(-c2cn3cccnc3n2)cc1NC(=O)c1c(-c2ccccc2Cl)noc1C`, > 30 µM (inactive).
As to `COc1cc(/C=C/c2nc(N)nc(-c3ccccc3O)n2)cc(OC)c1OC`, the AC50 is > 30 µM (inactive).
With `COc1ccc2nc(C)cc(N3CCN(S(=O)(=O)c4ccccc4F)CC3)c2c1`, the half-maximal activity concentration (AC50) is 8.27 µM.
For `COC(=O)c1sc2nc(N3CCCCC3)c3c(c2c1N)CCCC3`, the AC50 was > 30 µM (inactive).
In the case of `COc1ccc2nc(NC(=O)CN3CCN(C)CC3)sc2c1`, the AC50 is > 30 µM (inactive).
With `COc1cc2c(ccc3cc(OC)c(OC)c(O)c32)cc1O` the figure was 20.8 µM; with `COCCCNC(=O)C(=O)NC1CCCCCC1`, > 30 µM (inactive); with `CC(=O)Oc1ccc2ccc(=O)oc2c1`, > 30 µM (inactive).
In the case of `CC(=O)N(C)c1ccc(N=Cc2cc3c(cc2[N+](=O)[O-])OCO3)cc1`, the AC50 is 21.2 µM.
For `Cc1ccc(/C=C2\C(=O)Nc3ccccc32)o1`, the AC50 was 31.4 µM.
For the compound `CCCNC(=O)NC(C(=O)OC)C12CC3CC(CC(C3)C1)C2` (stereo not given), the AC50 is > 30 µM (inactive).
On to `O=c1c(O)c(-c2cc(O)c(O)c(O)c2)oc2cc(O)cc(O)c12`, for which the concentration at half-maximal activity (AC50) was 4.13 µM.
Turning to `Oc1ccc(-c2csc(Nc3cccnc3)n2)cc1`, the AC50 was 10.7 µM.
As to `CC(=O)Nc1ccc2nsnc2c1`, the AC50 is > 30 µM (inactive).
Consider `COc1ccc(-n2c(O)c(C=NCc3ccc4c(c3)OCO4)c(=O)[nH]c2=O)cc1`, for which the AC50 is > 30 µM (inactive).
In the case of `Cc1sc2ncnc(NCc3ccco3)c2c1C`, the AC50 was > 30 µM (inactive).
As for `Cc1cccc(C)c1OCC(=O)N=Nc1c(O)[nH]c2ccc(Br)cc12`, the AC50 is > 30 µM (inactive).
With `CN(C)c1ccc(CN2CCCCC2)cc1` the figure was > 30 µM (inactive).
Regarding `CCn1c(SCC(=O)N/N=C/c2cccs2)nc2ccccc21`, the AC50 is > 30 µM (inactive).
Take `O=C(COC(=O)Cc1ccsc1)Nc1ccc(Cl)cn1`: the AC50 was 28.4 µM.
On to `CC(=O)Nc1cccc(-c2csc(Nc3ccccn3)n2)c1`, for which the AC50 is > 30 µM (inactive).
With `C=CCOc1ccc(/C=N/n2cncn2)cc1OC` the figure was > 30 µM (inactive); with `Cc1nc(NCC2CCCO2)nc2c1C(=O)CC(C)(C)C2` (stereo not given), > 30 µM (inactive).
As to `Cc1csc(NC(=O)c2ccc3c(c2)OCO3)n1`, the AC50 was > 30 µM (inactive).
As to `COc1ccc(NC(=O)c2ccc(NCCCN3CCOCC3)c([N+](=O)[O-])c2)cc1`, the AC50 was > 30 µM (inactive).
In the case of `CC(C)CC(=O)NC(=S)Nc1sc2c(c1C(N)=O)CCC2`, the AC50 is > 30 µM (inactive).
On to `Cc1ccc(C2C3=C(CCCC3=O)Nc3[nH]c(=S)[nH]c(=O)c32)cc1` (stereo not given), for which the AC50 is > 30 µM (inactive).
On to `CCCC(=O)Nc1cc(-c2cn3cccnc3n2)ccc1OC`, for which the AC50 was > 30 µM (inactive).
With `O=C(/C=C/c1cccc2ccccc12)c1ccncc1` the figure was > 30 µM (inactive); with `CC(=C/c1ccccc1)/C=N/NC(=O)c1nnn(-c2nonc2N)c1CN1CCC(C)CC1`, > 30 µM (inactive).
`Cc1cc(C(=O)c2cccs2)c(N)s1`: the AC50 is 15.6 µM.
With `O=S(=O)(NCC1CCCO1)c1ccc(Cl)nc1` (stereo not given), the AC50 is > 30 µM (inactive).
For `CCc1ccc(C2C3=C(CC(C)(C)CC3=O)Nc3c2c(=O)[nH]c2nc(C)nn32)cc1` (stereo not given), the AC50 is > 30 µM (inactive).
As for `O=C(Nc1ccccc1)c1ccc(CSc2ncccn2)cc1`, the AC50 was > 30 µM (inactive).
With `COc1cc(/C=N/NC(=O)c2cccc(C(=O)N/N=C/c3ccc(O)c(OC)c3)n2)ccc1O`, the AC50 was > 30 µM (inactive).
On to `CC1CCCCC1NC(=O)C(=O)NCC1CCCO1` (stereo not given), for which the AC50 was > 30 µM (inactive).
In the case of `Nc1ncc(-c2ccccc2)c(-c2ccc(OCc3ccccc3)cc2O)n1`, the AC50 is > 30 µM (inactive).
In the case of `CCOC(=O)c1nnn(-c2nonc2N)c1COc1cc(C)c(Cl)c(C)c1`, the AC50 is 6.9 µM.
With `COc1ccc(N=c2oc3c(OC)cccc3cc2C(=O)NCc2ccco2)cc1OC` the figure was > 30 µM (inactive).
Consider `Cc1noc(C)c1COc1cccc(C(=O)OC(C)C(=O)Nc2c(C)n(C)n(-c3ccccc3)c2=O)c1` (stereo not given), for which the AC50 is > 30 µM (inactive).
With `CCc1cc2c(N3CCN(c4nnc(CC)s4)CC3)ncnc2s1`, the AC50 was 16 µM.
In the case of `C[C@@H]1O[C@@H](Oc2c(-c3ccc(O)c(O)c3)oc3cc(O)cc(O)c3c2=O)[C@H](O)[C@H](O)[C@H]1O`, the AC50 was 29.8 µM.
On to `CC1=C(C(=O)Nc2cccc(F)c2)C(c2ccsc2)C2=C(CC(C)(C)CC2=O)N1` (stereo not given), for which the AC50 was > 30 µM (inactive).
On to `CCOC(=O)N1CCC(N2CCN(S(=O)(=O)c3ccc(OC)cc3)CC2)CC1`, for which the AC50 is > 30 µM (inactive).
Take `COc1c(-c2ccc(O)cc2)oc2cc(O)cc(O)c2c1=O`: the AC50 is 6.97 µM.
As to `COc1ccc(/C=C(\C#N)C(=O)N=CN(C)C)cc1`, the AC50 is > 30 µM (inactive).
On to `Cc1onc(-c2ccccc2)c1C(=O)NCCN1CCOCC1`, for which the AC50 is > 30 µM (inactive).
With `O=C1NC(=Nc2ccccc2Cl)S/C1=C\c1cccc([N+](=O)[O-])c1` the figure was > 30 µM (inactive); with `Fc1ccc(Nc2ccnc(Nc3ccc(F)cc3)n2)cc1`, > 30 µM (inactive); with `CCOC(=O)c1c(NC(=O)Cc2cccs2)sc2c1CCCC2`, > 30 µM (inactive).
For `CNC(=O)c1ccsc1NC(=O)C1CCCN1S(=O)(=O)c1cccs1` (stereo not given), the concentration at half-maximal activity (AC50) is 17.2 µM.
Take `CCOC(=O)c1c(NC(=O)C2CC2)sc(C)c1CC`: the AC50 is > 30 µM (inactive).
Turning to `COC(=O)C1CSc2[nH]c(=O)sc2C1c1ccc(O)c(OC)c1` (stereo not given), the AC50 was > 30 µM (inactive).
On to `COc1ccccc1NC(=O)CSc1nnc(-c2ccncc2)o1`, for which the AC50 was > 30 µM (inactive).
Next, `CC(C)c1nnc(NC(=O)CCN2C(=O)c3ccccc3C2=O)s1`: > 30 µM (inactive); `C[C@H](CO)N1C[C@H](C)[C@@H](CN(C)S(=O)(=O)c2ccc(F)cc2)Oc2c(NC(=O)Nc3ccccc3)cccc2C1=O`: > 30 µM (inactive); `CC(NC(=O)COc1ccccc1F)C1CC2CCC1C2` (stereo not given): > 30 µM (inactive).
As for `Cn1nnnc1SCC(=O)Nc1nn(-c2ccccc2)nc1C(N)=O`, the AC50 is 24.2 µM.
Turning to `Nc1ncnc2nc(SCc3ccc(Cl)cc3Cl)[nH]c12`, the AC50 is > 30 µM (inactive).
As for `COc1ccc(-c2nc(N)n[nH]2)cc1`, the AC50 is > 30 µM (inactive).
On to `CN(Cc1c(C(=O)N/N=C/c2ccc(O)cc2)nnn1-c1nonc1N)c1ccccc1`, for which the AC50 was 0.243 µM.
With `COc1c(-c2ccc(O)c(O)c2)oc2cc(O)cc(O)c2c1=O` the figure was 1.93 µM; with `CCN(CC)Cc1c(C(=O)N/N=C(\C)c2ccncc2)nnn1-c1nonc1N`, 9.96 µM.
